Data published in ChEMBL document CHEMBL1938296, “Steroidal C-21 heteroaryl thioethers (Part 2): discovery of orally bioavailable selective glucocorticoid receptor modulators (dissociated steroids)” (Bioorg Med Chem Lett, 2012).

Experiments:
[1] = biological target: T1, Glucocorticoid receptor (Homo sapiens, UniProt P04150); assay: Transactivation of glucocorticoid receptor in human HepG2 cells assessed as induction of TAT measuring degradation of tyrosine to p-hydroxy phenyl pyruvate at 1 uM relative to untreated control; assay type: cell-based; conditions: hepg2, 1 µM
T1 sequence (P04150 whole entry): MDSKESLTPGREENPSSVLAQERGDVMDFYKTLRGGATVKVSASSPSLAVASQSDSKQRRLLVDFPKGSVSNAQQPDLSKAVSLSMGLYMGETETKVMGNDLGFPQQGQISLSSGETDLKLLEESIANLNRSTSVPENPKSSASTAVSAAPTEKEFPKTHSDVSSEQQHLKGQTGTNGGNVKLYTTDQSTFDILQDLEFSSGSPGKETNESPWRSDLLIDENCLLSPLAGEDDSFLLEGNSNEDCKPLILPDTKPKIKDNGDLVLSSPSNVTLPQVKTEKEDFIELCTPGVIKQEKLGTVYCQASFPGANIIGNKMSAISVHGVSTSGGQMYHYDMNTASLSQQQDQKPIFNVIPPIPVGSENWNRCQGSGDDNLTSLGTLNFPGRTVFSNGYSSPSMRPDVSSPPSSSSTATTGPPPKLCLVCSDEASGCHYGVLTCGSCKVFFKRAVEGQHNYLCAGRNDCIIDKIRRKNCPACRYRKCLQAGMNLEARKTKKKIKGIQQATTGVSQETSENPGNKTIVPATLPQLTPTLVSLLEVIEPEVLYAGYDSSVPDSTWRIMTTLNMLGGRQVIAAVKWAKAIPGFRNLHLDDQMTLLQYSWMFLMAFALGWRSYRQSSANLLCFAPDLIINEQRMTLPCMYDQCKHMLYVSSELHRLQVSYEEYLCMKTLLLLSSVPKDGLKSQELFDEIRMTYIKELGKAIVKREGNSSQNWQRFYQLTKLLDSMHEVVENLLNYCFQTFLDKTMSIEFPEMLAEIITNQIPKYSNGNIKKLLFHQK

[2] = biological target: T1, Glucocorticoid receptor; assay: Transrepression activity at glucocorticoid receptor in human H292 cells assessed as inhibition of TNF-stimulated IL-8 production; assay type: cell-based
[3] = biological target: T2, Glucocorticoid receptor (Rattus norvegicus, UniProt P06536); assay: Transactivation of glucocorticoid receptor in rat H42E cells assessed as induction of TAT measuring degradation of tyrosine to p-hydroxy phenyl pyruvate at 1 uM relative to prednisolone; assay type: cell-based; conditions: read-out: Efficacy
T2 sequence (P06536 whole entry): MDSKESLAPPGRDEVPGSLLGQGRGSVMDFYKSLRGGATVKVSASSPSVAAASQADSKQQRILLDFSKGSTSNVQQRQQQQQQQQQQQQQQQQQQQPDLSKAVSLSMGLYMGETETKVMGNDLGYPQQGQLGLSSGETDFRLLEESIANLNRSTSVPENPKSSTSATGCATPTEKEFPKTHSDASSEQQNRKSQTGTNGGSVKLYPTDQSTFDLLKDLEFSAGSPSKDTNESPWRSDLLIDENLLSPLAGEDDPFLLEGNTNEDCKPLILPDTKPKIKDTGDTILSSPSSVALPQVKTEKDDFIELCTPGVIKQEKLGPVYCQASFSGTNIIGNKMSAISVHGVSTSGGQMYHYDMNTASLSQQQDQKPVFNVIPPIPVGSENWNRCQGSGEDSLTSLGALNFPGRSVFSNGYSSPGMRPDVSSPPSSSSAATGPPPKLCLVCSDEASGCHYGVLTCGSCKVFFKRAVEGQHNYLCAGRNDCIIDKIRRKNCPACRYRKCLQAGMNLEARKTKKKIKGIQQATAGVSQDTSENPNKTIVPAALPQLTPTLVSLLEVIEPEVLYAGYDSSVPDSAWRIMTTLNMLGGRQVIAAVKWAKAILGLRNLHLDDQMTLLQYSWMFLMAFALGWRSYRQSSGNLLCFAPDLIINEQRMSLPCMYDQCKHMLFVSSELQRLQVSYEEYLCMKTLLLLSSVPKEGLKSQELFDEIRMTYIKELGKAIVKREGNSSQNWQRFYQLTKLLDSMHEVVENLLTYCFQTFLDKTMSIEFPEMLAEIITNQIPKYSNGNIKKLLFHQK

[4] = AUC in Brown Norway rat at 10 mg/kg, po; assay type: ADME, organism-based; parameters: dose 10 mg/kg, route oral; conditions: plasma
[5] = system: Rattus norvegicus; assay: Toxicity in Brown Norway rat allergic lung inflammation model assessed as decrease in thymus weight at 10 mg/kg, po for 3 days; assay type: organism-based; parameters: dose 10 mg/kg, route oral; scale not given: the % may be the effect or the level left; conditions: in vivo, 72 h
[6] = system: Rattus norvegicus; assay: Antiinflammatory activity against Brown Norway rat allergic lung inflammation model assessed as total cell inhibition at 10 mg/kg, po for 3 days; assay type: functional; parameters: scale not given: the % may be the effect or the level left

Compound | Efficacy [1] | IC50 [2] | Emax at 1 µM [3] | AUC [4] | Activity [5] | Activity [6]
Cc1cccc(SCC(=O)[C@@]2(O)[C@H](C)C[C@H]3[C@@H]4CCC5=CC(=O)C=C[C@]5(C)[C@H]4[C@@H](O)C[C@@]32C)n1 | 33% | 1.69 nM | 29% | – | – | –
Cc1ccnc(SCC(=O)[C@@]2(O)CC[C@H]3[C@@H]4CCC5=CC(=O)C=C[C@]5(C)[C@H]4[C@@H](O)C[C@@]32C)n1 | 6% | 11.4 nM | 6% | – | – | –
C[C@@H]1C[C@H]2[C@@H]3CCC4=CC(=O)C=C[C@]4(C)[C@H]3[C@@H](O)C[C@]2(C)[C@@]1(O)C(=O)CSc1ncnc2ccccc12 | 30% | 23.5 nM | 8% | – | – | –
C[C@]12C=CC(=O)C=C1CC[C@@H]1[C@@H]2[C@@H](O)C[C@@]2(C)[C@H]1CC[C@]2(O)C(=O)CSc1nc(-c2ccccc2)cs1 | 42% | 305 nM | 9% | – | – | –
C[C@]12C=CC(=O)C=C1CC[C@@H]1[C@@H]2[C@@H](O)C[C@@]2(C)[C@H]1CC[C@]2(O)C(=O)CSc1nc2ncccc2o1 | 21% | 17.2 nM | 29% | 2940 ng·h/mL | 9% | 56%
CCn1c(SCC(=O)[C@@]2(O)CC[C@H]3[C@@H]4CCC5=CC(=O)C=C[C@]5(C)[C@H]4[C@@H](O)C[C@@]32C)nc2ccccc21 | 9% | 41.3 nM | 10% | – | – | –
C[C@]12C=CC(=O)C=C1CC[C@@H]1[C@@H]2[C@@H](O)C[C@@]2(C)[C@H]1CC[C@]2(O)C(=O)CSc1nc2ccccc2s1 | – | – | 19% | 1220 ng·h/mL | 15% | 45%
C[C@]12C=CC(=O)C=C1CC[C@@H]1[C@@H]2[C@@H](O)C[C@@]2(C)[C@H]1CC[C@]2(O)C(=O)CSc1ncc2ccccc2n1 | 10% | 68.7 nM | 2% | 606 ng·h/mL | 11% | 46%
C[C@@H]1C[C@H]2[C@@H]3CCC4=CC(=O)C=C[C@]4(C)[C@H]3[C@@H](O)C[C@]2(C)[C@@]1(O)C(=O)CSc1cnc2ccccc2n1 | 54% | 37.9 nM | 3% | 1950 ng·h/mL | 65% | 85%

More lines, in order of falling IC50 [2], values ahead:

Efficacy [1] | IC50 [2] | Emax at 1 µM [3] | AUC [4] | Compound | Activity [5] | Activity [6]
6% | 118 nM | 7% | – | C[C@]12C=CC(=O)C=C1CC[C@@H]1[C@@H]2[C@@H](O)C[C@@]2(C)[C@H]1CC[C@]2(O)C(=O)CSc1nc2cccnc2s1 | – | –
13% | 69.3 nM | 2% | – | C[C@@H]1C[C@H]2[C@@H]3CCC4=CC(=O)C=C[C@]4(C)[C@H]3[C@@H](O)C[C@]2(C)[C@@]1(O)C(=O)CSc1nc2ccccc2n1C | – | –
7% | 57.2 nM | 2% | – | C[C@]12C=CC(=O)C=C1CC[C@@H]1[C@@H]2[C@@H](O)C[C@@]2(C)[C@H]1CC[C@]2(O)C(=O)CSc1nc2ncccc2[nH]1 | – | –
30% | 36 nM | 3% | – | C[C@@H]1C[C@H]2[C@@H]3CCC4=CC(=O)C=C[C@]4(C)[C@H]3[C@@H](O)C[C@]2(C)[C@@]1(O)C(=O)CSc1nc2ccccc2[nH]1 | – | –
8% | 17.6 nM | 6% | – | C[C@@H]1C[C@H]2[C@@H]3CCC4=CC(=O)C=C[C@]4(C)[C@H]3[C@@H](O)C[C@]2(C)[C@@]1(O)C(=O)CSc1nccc2ccccc12 | – | –
22% | 13.5 nM | 32% | 26 ng·h/mL | C[C@]12C=CC(=O)C=C1CC[C@@H]1[C@@H]2[C@@H](O)C[C@@]2(C)[C@H]1CC[C@]2(O)C(=O)CSc1nc2ccccc2o1 | – | –
– | 4.4 nM | – | – | C[C@@H]1C[C@H]2[C@@H]3CCC4=CC(=O)C=C[C@]4(C)[C@H]3[C@@H](O)C[C@]2(C)[C@@]1(O)C(=O)CSc1nc2ccccc2o1 | – | –
